The text below walks through data of patent US20230365627A1, “MACROCYCLIC PEPTIDE BORONATE IMMUNOMODULATORS” (Bristol-Myers Squibb Company, priority 2020, published 2023).

The assay addresses PD-1/PD-L1 (Homo sapiens (Human), UniProt Q9NZQ7). Nature of the assay: PD-1/PD-L1 Homogenous Time-Resolved Fluorescence (HTRF) binding assay. (In TR-FRET formats the signal depends on donor and acceptor labels being close together.)

pIC50: −log10 of the molar value. Where two headings read alike, the source gives them in different places. *1 amine or outer side, *2 acyl side, *3 side chain or, on linkers, in order; H or OH if unused. Where a SMILES comes first, the peptide text is derived from it. Bridges are numbered along the chain shown (N, C = ends). [ ]: non-standard residue; d: D form. X23 = O=C([C@H](CN1Cc2ccc(cc2)B2O[C@@H]([C@H](O)[C@@H](C(O)CO)O2)[C@H](O)C1)N[*:1])[*:2]; X12 = O=C([C@H](CN1Cc2ccccc2B2O[C@@H]([C@H](O)[C@@H](C(O)CO)O2)[C@H](O)C1)N[*:1])[*:2]; X16 = O=C([C@H](CN(Cc1cccc(B(O)O[*:3])c1)Cc1cccc2ccc3ccccc3c12)N[*:1])[*:2]; X13 = O=C([C@H](CCNC[C@@H](O)[C@@H](O)[C@H](O)[C@H](O)C(O)CO)N[*:1])[*:2]; Trp(1-CH2CO) = O=C([C@H](Cc1cn(CC(=O)[*:3])c2ccccc12)N[*:1])[*:2]; Trp(1-CH2COOH) = N[C@@H](Cc1cn(CC(=O)O)c2ccccc12)C(=O)O; X17 = O=C([C@H](CCNCc1cccc(B(O)O)c1)N[*:1])[*:2]; Hyp = O=C(O)[C@@H]1C[C@@H](O)CN1; NMeNle = CCCC[C@H](NC)C(=O)O; NMeA = CN[C@@H](C)C(=O)O

One may read the pIC50 as the negative decadic logarithm of the IC50, by convention in mol/L.

Sequence of PD-1/PD-L1 (Q9NZQ7 18-239): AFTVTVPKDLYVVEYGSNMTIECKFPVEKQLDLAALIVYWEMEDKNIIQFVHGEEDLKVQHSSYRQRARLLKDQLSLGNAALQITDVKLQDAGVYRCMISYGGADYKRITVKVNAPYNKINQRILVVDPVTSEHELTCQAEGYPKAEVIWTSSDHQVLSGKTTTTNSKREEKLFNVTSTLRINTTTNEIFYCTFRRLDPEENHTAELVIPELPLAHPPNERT

Consider `CCCC[C@H]1C(=O)N(C)[C@@H](CCCC)C(=O)N[C@@H](CC(C)C)C(=O)N[C@H](C(=O)NCC(N)=O)CSCC(=O)N[C@@H](Cc2ccc(O)cc2)C(=O)N(C)[C@@H](C)C(=O)N[C@@H](CC(N)=O)C(=O)N2CCC[C@H]2C(=O)N[C@@H](CN2Cc3ccccc3B3O[C@@H]([C@H](O)[C@@H](C(O)CO)O3)[C@H](O)C2)C(=O)N[C@@H](CC(C)C)C(=O)N2C[C@H](O)C[C@H]2C(=O)N[C@@H](Cc2c[nH]c3ccccc23)C(=O)N[C@@H](CCNC[C@@H](O)[C@@H](O)[C@H](O)[C@H](O)C(O)CO)C(=O)N[C@@H](Cc2cn(CC(=O)O)c3ccccc23)C(=O)N1C` (stereo partly drawn) [Example 1038] ({CH2CO}-Y[NMeA]NP[X12]L[Hyp]W[X13][Trp(1-CH2COOH)][NMeNle][NMeNle]LCG-NH2; thioether N-14), for which the negative logarithm of the IC50 (pIC50) is 8.17.
In turn, `CCCC[C@H]1C(=O)N(C)[C@@H](CCCC)C(=O)N[C@@H](CC(C)C)C(=O)N[C@H](C(=O)NCC(N)=O)CSCC(=O)N[C@@H](Cc2ccc(O)cc2)C(=O)N(C)[C@@H](C)C(=O)N[C@@H](CC(N)=O)C(=O)N2CCC[C@H]2C(=O)N[C@@H](CN2Cc3ccc(cc3)B3O[C@@H]([C@H](O)[C@@H](C(O)CO)O3)[C@H](O)C2)C(=O)N[C@@H](CC(C)C)C(=O)N2C[C@H](O)C[C@H]2C(=O)N[C@@H](Cc2c[nH]c3ccccc23)C(=O)N[C@@H](CCNC[C@@H](O)[C@@H](O)[C@H](O)[C@H](O)C(O)CO)C(=O)N[C@@H](Cc2cn(CC(=O)O)c3ccccc23)C(=O)N1C` (stereo partly drawn) [Example 1039] ({CH2CO}-Y[NMeA]NP[X23]L[Hyp]W[X13][Trp(1-CH2COOH)][NMeNle][NMeNle]LCG-NH2; thioether N-14) gave a pIC50 of 8.36.
Regarding `CCCC[C@H]1C(=O)N(C)[C@@H](CCCC)C(=O)N[C@@H](CC(C)C)C(=O)N[C@H](C(=O)NCC(N)=O)CSCC(=O)N[C@@H](Cc2ccc(O)cc2)C(=O)N(C)[C@@H](C)C(=O)N[C@@H](CC(N)=O)C(=O)N2CCC[C@H]2C(=O)N[C@H]2CN(Cc3cccc4ccc5ccccc5c34)Cc3cccc(c3)B(O)OC(=O)Cn3cc(c4ccccc43)C[C@H](NC(=O)[C@H](CCNCc3cccc(B(O)O)c3)NC(=O)[C@H](Cc3c[nH]c4ccccc34)NC(=O)[C@@H]3C[C@@H](O)CN3C(=O)[C@H](CC(C)C)NC2=O)C(=O)N1C` [Example 1042] ({CH2CO}-Y[NMeA]NP[X16]L[Hyp]W[X17][Trp(1-CH2CO)][NMeNle][NMeNle]LCG-NH2; ester 5-10; thioether N-14), under “PD-L1-His 10 nM, PD-1-Ig 20 nM, read-out: HTRF IC50”, the pIC50 was 7.03.
